We go through 24 compounds from patent US20020028938A1, “Prostaglandin endoperoxide H synthase biosynthesis inhibitors” (priority 1997, published 2002).

Molecules are shown by their SMILES. A value given as a limit tells only on which side of the number the result lay.

For the compound `COc1cc(Nc2c(-c3ccc(S(C)(=O)=O)cc3)cnn(CC(F)(F)F)c2=O)cc(C(F)(F)F)c1` [Example 310, 2-(2,2,2-Trifluoroethyl)-4-[3-methoxy-5-(trifluoromethyl)anilino]-5-[4-(methylsulfonyl)phenyl]-3(2H)-pyridazinone], the melting point (commonly the temperature of the solid-liquid transition) fell in the range of 206 to 208 °C. As for `CS(=O)(=O)c1ccc(-c2cnn(CC(F)(F)F)c(=O)c2Nc2ccccc2)cc1` [Example 311, 2-(2,2,2-Trifluoroethyl)-4-anilino-5-[4-(methylsulfonyl)phenyl]-3(2H)-pyridazinone], the figure is 154 to 156 °C; as for `CS(=O)(=O)c1ccc(-c2cnn(CC(F)(F)F)c(=O)c2Nc2cc(F)cc(F)c2F)cc1` [Example 315, 2-(2,2,2-Trifluoroethyl)-4-(2,3,5-trifluoroanilino)-5-[4-(methylsulfonyl)phenyl]-3(2H)-pyridazinone], 190 to 194 °C. As for `CS(=O)(=O)c1ccc(-c2cnn(CC(F)(F)F)c(=O)c2Nc2ccc(F)cc2)cc1` [Example 316, 2-(2,2,2-Trifluoroethyl)-4-(4-fluoroanilino)-5-[4-(methylsulfonyl)phenyl]-3(2H)-pyridazinone], the figure is 158 to 160 °C; as for `CS(=O)(=O)c1ccc(-c2cnn(Cc3ccccc3)c(=O)c2-c2ccc3c(c2)COC3=O)cc1` [Example 319, 2-Benzyl-4-(1-oxo-1,3-dihydro-2-benzofuran-5-yl)-5-[4-(methylsulfonyl)phenyl]-3(2H)-pyridazinone], greater than 250 °C. Compound `COc1c(-c2ccc(S(C)(=O)=O)cc2)cnn(-c2cccc(Cl)c2)c1=O` [Example 331, 2-(3-Chlorophenyl)-4-methoxy-5-[4-(methylsulfonyl)phenyl]-3(2H)-pyridazinone] registered a melting point of 112 to 114 °C. Compound `CS(=O)(=O)c1ccc(-c2cnn(-c3ccc(F)cc3)c(=O)c2N2CCCC2)cc1` [Example 356, 2-(4-Fluorophenyl)-4-(1-pyrrolidinyl)-5-[4-(methylsulfonyl)phenyl]-3(2H)-pyridazinone] yielded a melting point of 192 to 195 °C. As for `Cc1ccc(Sc2c(-c3ccc(S(C)(=O)=O)cc3)cnn(-c3cccc(Cl)c3)c2=O)cc1` [Example 357, 2-(3-Chlorophenyl)-4-(4-methylphenylthio)-5-[4-(methylsulfonyl)phenyl]-3(2H)-pyridazinone], the figure is 178 °C; as for `CS(=O)(=O)c1ccc(-c2cnn(-c3cccc(Cl)c3)c(=O)c2SCc2ccccc2)cc1` [Example 359, 2-(3-Chlorophenyl)-4-(phenylmethylthio)-5-[4-(methylsulfonyl)phenyl]-3(2H)-pyridazinone], 142 to 145 °C. In the case of `CS(=O)(=O)c1ccc(-c2cnn(-c3cccc(Cl)c3)c(=O)c2SCc2ccco2)cc1` [Example 360, 2-(3-Chlorophenyl)-4-(2-furylmethylthio)-5-[4-(methylsulfonyl)phenyl]-3(2H)-pyridazinone], the melting point fell in the range of 140 to 149 °C. For `CS(=O)(=O)c1ccc(-c2cnn(-c3ccc(F)cc3)c(=O)c2Cc2ccc(F)cc2)cc1` [Example 377, 2-(4-Fluorophenyl)-4-(4-fluorobenzyl)-5-[4-(methylsulfonyl)phenyl]-3(2H)-pyridazinone], the melting point was in the range of 175 to 177 °C.

Regarding `CC(C)COc1c(-c2ccc(S(N)(=O)=O)c(F)c2)cnn(CC(F)(F)F)c1=O` [Example 382, 2-(2,2,2-Trifluoroethyl)-4-(2-methylpropoxy)-5-[3-fluoro-4-(aminosulfonyl)phenyl]-3(2H)-pyridazinone], the melting point was in the range of 163 to 164 °C.

In turn, `NS(=O)(=O)c1ccc(-c2cnn(Cc3ccccc3)c(=O)c2Cc2ccc(F)cc2)cc1` [Example 383, 2-Benzyl-4-(4-fluorobenzyl)-5-[4-(aminosulfonyl)phenyl]-3(2H)-pyridazinone] came in with a melting point of 120 to 123 °C. As for `Cc1cc(-c2c(-c3ccc(S(N)(=O)=O)cc3)cnn(-c3ccc(F)c(Cl)c3)c2=O)ccc1F` [Example 389, 2-(3-Chloro-4-fluorophenyl)-4-(4-fluoro-3-methylphenyl)-5-[4-(aminosulfonyl)phenyl]-3(2H)-pyridazinone], the figure is 243 to 245 °C; as for `CS(=O)(=O)c1ccc(-c2cnn(-c3ccc(F)cc3)c(=O)c2OCC2CC2)cc1` [Example 416, 2-(4-Fluorophenyl)-4-cyclopropylmethoxy-5-[4-(methylsulfonyl)phenyl]-3(2H)-pyridazinone], 166 to 167 °C; as for `CS(=O)(=O)c1ccc(-c2cnn(-c3ccc(F)cc3)c(=O)c2OCCC2CC2)cc1` [Example 417, 2-(4-Fluorophenyl)-4-(2-cyclopropyl-1-ethoxy)-5-[4-(methylsulfonyl)phenyl]-3(2H)-pyridazinone], 111 to 117 °C.

Take `CC(C)CCC(C)Oc1c(-c2ccc(S(C)(=O)=O)cc2)cnn(-c2ccc(F)cc2)c1=O` (stereo not drawn) [Example 429, 2-(4-Fluorophenyl)-4-(5-methyl-2-hexyloxy)-5-[4-(methylsulfonyl)phenyl]-3(2H)-pyridazinone]: the melting point was 102 to 103 °C. In the case of `CCCC(CCOc1c(-c2ccc(S(C)(=O)=O)cc2)cnn(-c2ccc(F)cc2)c1=O)SC` (stereo not drawn) [Example 433, 2-(4-Fluorophenyl)-4-(3-methylthio-1-hexyloxy)-5-[4-(methylsulfonyl)phenyl]-3(2H)-pyridazinone] it was 90 to 92 °C; in that of `CC(CCOc1c(-c2ccc(S(C)(=O)=O)cc2)cnn(-c2ccc(F)c(F)c2)c1=O)C(F)(F)F` (stereo not drawn) [Example 435, 2-(3,4-Difluorophenyl)-4-(3-trifluoromethyl-1-butoxy)-5-[4-(methylsulfonyl)phenyl]-3(2H)-pyridazinone], 126 to 128 °C.

In turn, `CCOc1c(-c2ccc(S(C)(=O)=O)cc2)cnn(-c2ccc(F)c(F)c2)c1=O` [Example 436, 2-(3,4-Difluorophenyl)-4-ethoxy-5-[4-(methylsulfonyl)phenyl]-3(2H)-pyridazinone] returned a melting point of 121 to 123 °C. Compound `CS(=O)(=O)c1ccc(-c2cnn(-c3ccc(F)c(F)c3)c(=O)c2OCCC2CCCC2)cc1` [Example 439, 2-(3,4-Difluorophenyl)-4-(2-cyclopentyl-1-ethoxy)-5-[4-(methylsulfonyl)phenyl]-3(2H)-pyridazinone] came in with a melting point of 100 to 101 °C. `CS(=O)(=O)c1ccc(-c2cnn(CC(O)c3ccccc3)c(=O)c2-c2ccc(F)cc2)cc1` (stereo not drawn) [Example 441, 2-(2-Hydroxy-2-phenylethyl)-4-(4-fluorophenyl)-5-[4-(methylsulfonyl)phenyl]-3(2H)-pyridazinone]: the melting point fell in the range of 205 to 207 °C. `COc1c(-c2ccc(S(C)(=O)=O)cc2)cnn(-c2ccc(F)c(F)c2)c1=O` [Example 453, 2-(3,4-Difluorophenyl)-4-methoxy-5-[4-(methylsulfonyl)phenyl]-3(2H)-pyridazinone] showed a melting point of 113 to 115 °C. Compound `CS(=O)(=O)c1ccc(-c2cnn(-c3ccc(F)cc3)c(=O)c2-c2cccc(F)c2)cc1` [Example 458, 2-(4-Fluorophenyl)-4-(3-fluorophenyl)-5-[4-(methylsulfonyl)phenyl]-3(2H)-pyridazinone] yielded a melting point of 199 to 201 °C.
